# Target: LRRK2 G2019S (Homo sapiens, UniProt Q5S007, G2019S)
# Test: LRRK2 G2019S Km ATP LanthaScreen assay
# Type: biochemical
# Settings: not given
# Chain of LRRK2 G2019S (Q5S007 whole entry G2019S): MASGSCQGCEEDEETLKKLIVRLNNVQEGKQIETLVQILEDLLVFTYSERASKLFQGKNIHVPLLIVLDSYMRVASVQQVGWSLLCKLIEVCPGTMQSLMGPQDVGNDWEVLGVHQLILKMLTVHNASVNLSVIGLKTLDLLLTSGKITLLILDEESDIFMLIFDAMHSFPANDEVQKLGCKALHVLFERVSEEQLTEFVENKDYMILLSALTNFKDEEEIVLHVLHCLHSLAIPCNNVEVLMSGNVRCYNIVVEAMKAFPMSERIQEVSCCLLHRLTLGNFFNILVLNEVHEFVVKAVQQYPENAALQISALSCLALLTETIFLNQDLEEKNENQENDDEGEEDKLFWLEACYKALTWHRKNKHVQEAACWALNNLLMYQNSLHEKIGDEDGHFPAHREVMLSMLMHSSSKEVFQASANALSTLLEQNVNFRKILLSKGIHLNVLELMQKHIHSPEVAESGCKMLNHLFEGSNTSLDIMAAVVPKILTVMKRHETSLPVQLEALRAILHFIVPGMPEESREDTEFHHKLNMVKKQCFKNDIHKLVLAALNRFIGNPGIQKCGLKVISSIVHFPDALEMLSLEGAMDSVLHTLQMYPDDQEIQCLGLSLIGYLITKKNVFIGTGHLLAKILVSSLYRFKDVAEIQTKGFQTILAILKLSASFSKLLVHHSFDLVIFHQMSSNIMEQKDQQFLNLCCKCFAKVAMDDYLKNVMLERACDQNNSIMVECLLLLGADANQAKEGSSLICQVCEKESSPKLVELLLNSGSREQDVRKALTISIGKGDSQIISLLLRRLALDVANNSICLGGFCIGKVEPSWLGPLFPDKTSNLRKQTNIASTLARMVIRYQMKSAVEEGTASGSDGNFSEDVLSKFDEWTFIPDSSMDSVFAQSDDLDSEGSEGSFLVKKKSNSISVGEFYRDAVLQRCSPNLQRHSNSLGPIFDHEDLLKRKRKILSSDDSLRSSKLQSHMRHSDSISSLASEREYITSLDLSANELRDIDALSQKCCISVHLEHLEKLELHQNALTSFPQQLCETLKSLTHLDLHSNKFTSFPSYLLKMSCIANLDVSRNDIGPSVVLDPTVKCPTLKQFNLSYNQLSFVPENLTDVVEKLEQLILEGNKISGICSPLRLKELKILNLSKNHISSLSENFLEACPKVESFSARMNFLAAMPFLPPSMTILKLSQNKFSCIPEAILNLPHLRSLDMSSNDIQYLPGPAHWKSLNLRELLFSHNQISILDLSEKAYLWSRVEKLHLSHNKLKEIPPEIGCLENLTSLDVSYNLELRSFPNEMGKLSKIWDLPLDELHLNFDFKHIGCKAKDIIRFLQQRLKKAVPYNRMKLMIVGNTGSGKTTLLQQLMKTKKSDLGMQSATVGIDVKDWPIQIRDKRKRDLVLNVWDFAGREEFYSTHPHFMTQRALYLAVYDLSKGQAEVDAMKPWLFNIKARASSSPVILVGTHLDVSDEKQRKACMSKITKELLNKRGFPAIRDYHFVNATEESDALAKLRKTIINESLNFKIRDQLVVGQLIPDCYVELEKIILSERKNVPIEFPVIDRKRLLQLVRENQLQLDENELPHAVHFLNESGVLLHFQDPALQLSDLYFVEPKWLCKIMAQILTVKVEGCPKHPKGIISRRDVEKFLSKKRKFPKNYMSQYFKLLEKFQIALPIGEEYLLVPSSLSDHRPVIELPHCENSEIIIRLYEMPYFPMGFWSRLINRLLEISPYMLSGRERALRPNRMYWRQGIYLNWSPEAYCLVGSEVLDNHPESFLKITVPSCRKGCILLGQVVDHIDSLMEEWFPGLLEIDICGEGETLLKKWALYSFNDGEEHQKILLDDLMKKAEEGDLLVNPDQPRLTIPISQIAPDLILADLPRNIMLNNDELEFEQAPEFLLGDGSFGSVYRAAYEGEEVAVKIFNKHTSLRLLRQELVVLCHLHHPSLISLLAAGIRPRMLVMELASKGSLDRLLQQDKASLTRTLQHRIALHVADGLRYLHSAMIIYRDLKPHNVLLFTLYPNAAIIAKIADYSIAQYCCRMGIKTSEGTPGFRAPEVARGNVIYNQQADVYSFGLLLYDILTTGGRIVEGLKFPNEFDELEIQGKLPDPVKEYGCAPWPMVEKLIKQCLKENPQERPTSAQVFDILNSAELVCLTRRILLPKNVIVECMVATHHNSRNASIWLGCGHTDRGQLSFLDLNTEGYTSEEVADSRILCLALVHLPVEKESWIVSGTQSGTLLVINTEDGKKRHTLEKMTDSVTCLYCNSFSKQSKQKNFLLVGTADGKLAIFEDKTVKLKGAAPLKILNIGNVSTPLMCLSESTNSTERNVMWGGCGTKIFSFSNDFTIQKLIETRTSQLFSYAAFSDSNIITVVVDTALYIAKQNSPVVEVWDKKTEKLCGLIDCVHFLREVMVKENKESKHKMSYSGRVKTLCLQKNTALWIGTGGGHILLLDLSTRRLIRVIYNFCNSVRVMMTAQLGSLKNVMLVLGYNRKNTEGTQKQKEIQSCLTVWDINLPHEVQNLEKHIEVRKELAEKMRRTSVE
row,LRRK2 pIC50,SMILES
1,10.09,CC1(N2CCC(c3cc4cc(NC(=O)Cc5ccncc5)ncc4cc3Cl)CC2)COCC1O (stereo not drawn) [Ex-3.8]

# Same assay, conditions: read-out: LRRK2 pIC50 (converted)
row,IC50,SMILES
1,5.89 nM,"CC(C)(O)C1CC1C(=O)Nc1cc2cc(C3CCN(C4(C)CCOC4)CC3)c(Cl)cc2cn1 (single isomer, unassigned) [Ex-6.13, N-(7-chloro-6-(1-(3-methyltetrahydrofuran-3-yl)piperidin-4-yl)isoquinolin-3-yl)-2-(2-hydroxypropan-2-yl)cyclopropane-1-carboxamide]"
2,447 nM,"Cn1cc(C(C)(C)C(=O)Nc2cc3cc(C4CCN(C5(C)COCC5F)CC4)c(Cl)cc3cn2)cn1 (single isomer, unassigned) [Ex-6.55, N-(7-chloro-6-(1-(4-fluoro-3-methyltetrahydrofuran-3-yl)piperidin-4-yl)isoquinolin-3-yl)-2-methyl-2-(1-methyl-1H-pyrazol-4-yl)propenamide]"
3,5.5 nM,"CC1CC(C(=O)Nc2cc3cc(C4CCN(C5(C)COC5)CC4)c(Cl)cc3cn2)C1 (racemic) [Ex-1.16, Rac-N-(7-chloro-6-(1-(3-methyloxetan-3-yl)piperidin-4-yl)isoquinolin-3-yl)-3-methylcyclobutane-1-carboxamide]"
4,5.5 nM,"O=C(Nc1cc2cc(C3CCN(C4COC4)CC3)c(Cl)cc2cn1)C1CCCC1 [Ex-7.5, N-(7-chloro-6-(1-(oxetan-3-yl)piperidin-4-yl)isoquinolin-3-yl)cyclopentanecarboxamide]"
5,0.776 nM,"CC1(C)CCC(C(=O)Nc2cc3cc(C4CCN(C5(C)COCC5O)CC4)c(Cl)cc3cn2)CO1 (single isomer, unassigned) [Ex-4.25, N-(7-chloro-6-(1-(4-hydroxy-3-methyltetrahydrofuran-3-yl)piperidin-4-yl)isoquinolin-3-yl)-6,6-dimethyltetrahydrofuran-2H-pyran-3-carboxamide]"
6,0.182 nM,"CC1(N2CCC(c3cc4cc(NC(=O)C5C6CCCC65)ncc4cc3Cl)CC2)COCC1O (single isomer, unassigned) [Ex-1.20, N-(7-chloro-6-(1-((3R,4R or 3S,4S)-4-hydroxy-3-methyltetrahydrofuran-3-yl)piperidin-4-yl)isoquinolin-3-yl)bicyclo[3.1.0]hexane-6-carboxamide]"
7,0.0813 nM,"CC(C)c1cc2cc(NC(=O)C3CC3c3cnn(C)c3)ncc2cc1Cl (stereo not drawn) [Ex-21.1, N-(7-chloro-6-isopropylisoquinolin-3-yl)-2-(1-methyl-1H-pyrazol-4-yl)cyclopropane-1-carboxamide]"
8,0.501 nM,"Cc1cc2cnc(NC(=O)C3CC3C(C)(C)F)cc2cc1C1CCN(C2(C)COCC2O)CC1 (single isomer, unassigned) [Ex-15.6, 2-(2-fluoropropan-2-yl)-N-(6-(1-(4-hydroxy-3-methyltetrahydrofuran-3-yl)piperidin-4-yl)-7-methylisoquinolin-3-yl)cyclopropane-1-carboxamide]"
9,0.0813 nM,"CC1(C)CC(C(=O)Nc2cc3cc(C4CCN(C5(C)COCC5F)CC4)c(Cl)cc3cn2)CCO1 (single isomer, unassigned) [Ex-6.37, N-(7-chloro-6-(1-(4-fluoro-3-methyltetrahydrofuran-3-yl)piperidin-4-yl)isoquinolin-3-yl)-2,2-dimethyltetrahydro-2H-pyran-4-carboxamide]"
10,240 nM,CC1(c2ccccn2)CC1C(=O)Nc1cc2cc(C3CCN(C4(C)COCC4O)CC3)c(Cl)cc2cn1 (stereo not drawn) [Ex-2.91]
11,0.0813 nM,"C[C@@]1(N2CC[C@@H](c3cc4cc(NC(=O)[C@@H]5CC56CC6)ncc4cc3Cl)[C@H](F)C2)COC[C@@H]1O [Ex-23.2, (R)-N-(7-chloro-6-((3S,4S)-3-fluoro-1-((3R,4R)-4-hydroxy-3-methyltetrahydrofuran-3-yl)piperidin-4-yl)isoquinolin-3-yl)spiro[2.2]pentane-1-carboxamide]"
12,0.0813 nM,"Cc1noc(C2CC2C(=O)Nc2cc3cc(C4CCN(C5(C)COCC5O)CC4)c(Cl)cc3cn2)n1 (single isomer, unassigned) [Ex-4.15, N-(7-chloro-6-(1-(4-hydroxy-3-methyltetrahydrofuran-3-yl)piperidin-4-yl)isoquinolin-3-yl)-2-(3-methyl-1,2,4-oxadiazol-5-yl)cyclopropane-1-carboxamide]"
13,1.12 nM,"O=C(Nc1cc2cc(C3CCN(C4COC4)CC3)c(Cl)cc2cn1)[C@H]1C[C@@H]1F (single isomer, unassigned) [Ex-1.7, (1R,3S or 1S,3R)-N-(7-chloro-6-(1-(oxetan-3-yl)piperidin-4-yl)isoquinolin-3-yl)-2-fluorocyclopropane-1-carboxamide]"
14,0.0813 nM,Cn1ccc(C2CC2C(=O)Nc2cc3cc(C4CCN(C5(C)COCC5F)CC4)c(Cl)cc3cn2)n1 (stereo not drawn) [Ex-2.84]
15,0.0912 nM,"CC(C)(O)C1CC1C(=O)Nc1cc2cc(C3CCN(C4(C)COCC4O)CC3)c(Cl)cc2cn1 (single isomer, unassigned) [Ex-1.21, (1R,2R or 1S,2S)-N-(7-chloro-6-(1-((3R,4R or 3S,4S)-4-hydroxy-3-methyltetrahydrofuran-3-yl)piperidin-4-yl)isoquinolin-3-yl)-2-(2-hydroxypropan-2-yl)cyclopropane-1-carboxamide]"
16,0.115 nM,"CC(C)(O)C1CC1C(=O)Nc1cc2cc(C3CCN(C4(C)CCOC4)CC3)c(Cl)cc2cn1 (single isomer, unassigned) [Ex-6.15, N-(7-chloro-6-(1-(3-methyltetrahydrofuran-3-yl)piperidin-4-yl)isoquinolin-3-yl)-2-(2-hydroxypropan-2-yl)cyclopropane-1-carboxamide]"

row,IC50,SMILES
1,3.24 nM,"N#CC1(c2ccc3cnc(NC(=O)C4CCC4)cc3c2)CC12CC2 (single isomer, unassigned) [Ex-1.15, (R or S)-N-(6-(1-cyanospiro[2.2]pentan-1-yl)isoquinolin-3-yl)cyclobutanecarboxamide]"
2,0.575 nM,N#CC1(c2ccc3cnc(NC(=O)C4CC4c4ccccn4)cc3c2)CC12CC2 (stereo not drawn) [Ex-2.40]
3,10.7 nM,"CCC(=O)N1CC(C(=O)Nc2cc3cc(C4(C#N)CC45CC5)ccc3cn2)C1 (single isomer, unassigned) [Ex-19.1, (R or S)-N-(6-(1-cyanospiro[2.2]pentan-1-yl)isoquinolin-3-yl)-1-propionylazetidine-3-carboxamide]"
4,30.9 nM,"CCC1C(C(=O)Nc2cc3cc(C4CCN(C5(C)COCC5O)CC4)c(Cl)cc3cn2)C1c1ccccn1 (single isomer, unassigned) [Ex-4.55, N-(7-chloro-6-(1-(4-hydroxy-3-methyltetrahydrofuran-3-yl)piperidin-4-yl)isoquinolin-3-yl)-2-ethyl-3-(pyridin-2-yl)cyclopropane-1-carboxamide]"
5,39.8 nM,"C[C@H]1CC(F)(F)CC[C@H]1C(=O)Nc1cc2cc(C3CCN(C4COC4)CC3)c(Cl)cc2cn1 [Ex-1.11, (1R,2S)-N-(7-chloro-6-(1-(oxetan-3-yl)piperidin-4-yl)isoquinolin-3-yl)-4,4-difluoro-2-methylcyclohexane-1-carboxamide]"
6,0.186 nM,CC(C)(O)C1CC(C(=O)Nc2cc3cc(C4CCN(C5(C)COCC5O)CC4)c(Cl)cc3cn2)C1 (stereo not drawn) [Ex-2.14]
7,0.0813 nM,"C[C@@]1(N2CC[C@@H](c3cc4cc(NC(=O)[C@H]5CC56CC6)ncc4cc3Cl)[C@H](F)C2)COC[C@@H]1O [Ex-23.1, (S)-N-(7-chloro-6-((3S,4S)-3-fluoro-1-((3R,4R)-4-hydroxy-3-methyltetrahydrofuran-3-yl)piperidin-4-yl)isoquinolin-3-yl)spiro[2.2]pentane-1-carboxamide]"
8,0.166 nM,"CC1(N2CCC(c3cc4cc(NC(=O)C5COC6(CCC6)C5)ncc4cc3Cl)CC2)COCC1O (single isomer, unassigned) [Ex-4.18, N-(7-chloro-6-(1-(4-hydroxy-3-methyltetrahydrofuran-3-yl)piperidin-4-yl)isoquinolin-3-yl)-5-oxaspiro[3.4]octane-7-carboxamide]"
9,1.82 nM,"CC1(N2CCC(c3cc4cc(NC(=O)C5CC56CCOC6)ncc4cc3Cl)CC2)COCC1F (single isomer, unassigned) [Ex-6.7, (R or S)-N-(7-chloro-6-(1-((3R,4R or 3S,4S)-4-fluoro-3-methyltetrahydrofuran-3-yl)piperidin-4-yl)isoquinolin-3-yl)-5-oxaspiro [2.4] heptane-1-carboxamide]"
10,4.27 nM,CC1(N2CCC(c3cc4cc(NC(=O)C5CC56CCC(F)(F)CC6)ncc4cc3Cl)CC2)COCC1O (stereo not drawn) [Ex-2.17]
11,0.0813 nM,"CCC1C(C(=O)Nc2cc3cc(C4CCN(C5(C)COCC5F)CC4)c(Cl)cc3cn2)C1c1cnn(C)c1 (single isomer, unassigned) [Ex-1.34, (1R,2R,3R or 1R,2S,3R or 1S,2R,3S, or 1S,2S,3S)-N-(7-chloro-6-(1-((3R,4R or 3S,4S)-4-fluoro-3-methyltetrahydrofuran-3-yl)piperidin-4-yl)isoquinolin-3-yl)-2-ethyl-3-(1-methyl-1H-pyrazol-4-yl)cyclopropane-1-carboxamide]"
12,5.62 nM,"Cc1cc2cnc(NC(=O)C3CC3c3ccccn3)cc2cc1C1CCN(C2(C)COCC2O)CC1 (single isomer, unassigned) [Ex-4.77, N-(6-(1-(4-hydroxy-3-methyltetrahydrofuran-3-yl)piperidin-4-yl)-7-methylisoquinolin-3-yl)-2-(pyridin-2-yl)cyclopropane-1-carboxamide]"
13,7.41 nM,"N#CC1(c2cc3cc(NC(=O)C4CC4c4ccccn4)ncc3cc2F)CC12CC2 (single isomer, unassigned) [Ex-18.13, (1R,2R or 1S,2S)-N-(6-((R or S)-1-cyanospiro[2.2]pentan-1-yl)-7-fluoroisoquinolin-3-yl)-2-(pyridin-2-yl)cyclopropane-1-carboxamide]"
14,0.38 nM,"CC1(N2CCC(c3cc4cc(NC(=O)C5C6CCOCC65)ncc4cc3Cl)CC2)COCC1F (single isomer, unassigned) [Ex-6.42, N-(7-chloro-6-(1-(4-fluoro-3-methyltetrahydrofuran-3-yl)piperidin-4-yl)isoquinolin-3-yl)-3-oxabicyclo[4.1.0]heptane-7-carboxamide]"
15,2.88 nM,"O=C(Nc1cc2cc(C3CCN(C4COCC4O)CC3)c(Cl)cc2cn1)C1CC1 (single isomer, unassigned) [Ex-12.5, N-(7-chloro-6-(1-(4-hydroxytetrahydrofuran-3-yl)piperidin-4-yl)isoquinolin-3-yl)cyclopropanecarboxamide]"
16,1.7 nM,CC1(C)CC(C(=O)Nc2cc3cc(C4CCN(C5(C)COCC5O)CC4)c(Cl)cc3cn2)CCO1 (stereo not drawn) [Ex-2.34]

# — patent US20240398784A1, “C-LINKED ISOQUINOLINE AMIDES AS LRRK2 INHIBITORS, PHARMACEUTICAL COMPOSITIONS, AND USES THEREOF” (Merck Sharp & Dohme LLC, priority 2021, published 2024)
